Source: ChEMBL document CHEMBL3232804, “Synthesis and evaluation of new diaryl ether and quinoline hybrids as potential antiplasmodial and antimicrobial agents” (Bioorg Med Chem Lett, 2014)
Values after ≈ are worked out from the molar mass of the structure shown. Each block holds one compound with its values, some of them ahead of it.

How the values were obtained:
Staphylococcus aureus = experiment: Antimicrobial activity against Staphylococcus aureus ATCC 25923 after 24 hrs by standard broth microdilution method; type: functional; conditions: ATCC 25923, 24 h
[1] = tested on: Trichophyton mentagrophytes; experiment: Antifungal activity against Trichophyton mentagrophytes clinical isolate after 72 to 96 hrs by standard broth microdilution method; type: functional
Candida albicans = experiment: Antifungal activity against Candida albicans clinical isolate after 24 to 48 hrs by standard broth microdilution method; type: functional
Aspergillus fumigatus = experiment: Antifungal activity against Aspergillus fumigatus clinical isolate after 72 to 96 hrs by standard broth microdilution method; type: functional
Plasmodium falciparum [2] = experiment: Antiplasmodial activity against chloroquine-resistant Plasmodium falciparum K1 infected after 72 hrs by Malaria SYBR Green I-staining based fluorescence assay; type: functional, organism-based; conditions: K1, 72 h
[3] = Selectivity index, ratio of IC50 for african green monkey Vero cells to IC50 for chloroquine-sensitive Plasmodium falciparum 3D7; type: toxicity, cell-based; conditions: read-out: Ratio IC50
Escherichia coli = experiment: Antimicrobial activity against Escherichia coli ATCC 9637 after 24 hrs by standard broth microdilution method; type: functional; conditions: ATCC 9637, 24 h
Plasmodium falciparum [4] = experiment: Antiplasmodial activity against chloroquine-sensitive Plasmodium falciparum 3D7 infected after 72 hrs by Malaria SYBR Green I-staining based fluorescence assay; type: functional, organism-based; conditions: 3D7, 72 h
Klebsiella pneumoniae = experiment: Antimicrobial activity against Klebsiella pneumoniae ATCC 27736 after 24 hrs by standard broth microdilution method; type: functional; conditions: ATCC 27736, 24 h
Pseudomonas aeruginosa = experiment: Antimicrobial activity against Pseudomonas aeruginosa ATCC BAA-427 after 24 hrs by standard broth microdilution method; type: functional; conditions: ATCC BAA-427, 24 h
Cryptococcus neoformans = experiment: Antifungal activity against Cryptococcus neoformans clinical isolate after 24 to 48 hrs by standard broth microdilution method; type: functional
Sporothrix schenckii = experiment: Antifungal activity against Sporothrix schenckii clinical isolate after 72 to 96 hrs by standard broth microdilution method; type: functional
Candida parapsilosis = experiment: Antifungal activity against Candida parapsilosis ATCC […] after 72 to 96 hrs by standard broth microdilution method; type: functional; conditions: Lodderomyces parapsilosis

SMILES: COc1ccc(Oc2ccc(N/C(=N/c3cccc(Cl)c3)NCCCCNc3ccnc4cc(Cl)ccc34)cc2)cc1
- MIC (Staphylococcus aureus): 6.25 µg/mL (≈ 10.4 µM)
- MIC [1]: 6.25 µg/mL (≈ 10.4 µM)
- MIC (Candida albicans): 6.25 µg/mL (≈ 10.4 µM)
- MIC (Aspergillus fumigatus): 25 µg/mL (≈ 41.6 µM)
- IC50 (Plasmodium falciparum [2]): 147 nM
- selectivity ratio [3]: 61.2
- MIC (Escherichia coli): 25 µg/mL (≈ 41.6 µM)
- IC50 (Plasmodium falciparum [4]): 75.7 nM
- MIC (Klebsiella pneumoniae): 25 µg/mL (≈ 41.6 µM)
- MIC (Pseudomonas aeruginosa): > 50 µg/mL
- MIC (Cryptococcus neoformans): 12.5 µg/mL (≈ 20.8 µM)
- MIC (Sporothrix schenckii): 6.25 µg/mL (≈ 10.4 µM)
- MIC (Candida parapsilosis): 6.25 µg/mL (≈ 10.4 µM)

SMILES: Clc1ccc(/N=C(\NCCCCNc2ccnc3cc(Cl)ccc23)Nc2ccccc2Oc2cc(Cl)ccc2Cl)cc1
- MIC (Staphylococcus aureus): > 50 µg/mL
- MIC [1]: > 50 µg/mL
- MIC (Candida albicans): > 50 µg/mL
- MIC (Aspergillus fumigatus): > 50 µg/mL
- IC50 (Plasmodium falciparum [2]): 151 nM
- selectivity ratio [3]: 11
- MIC (Escherichia coli): > 50 µg/mL
- IC50 (Plasmodium falciparum [4]): 654 nM
- MIC (Klebsiella pneumoniae): > 50 µg/mL
- MIC (Pseudomonas aeruginosa): > 50 µg/mL
- MIC (Cryptococcus neoformans): > 50 µg/mL
- MIC (Sporothrix schenckii): > 50 µg/mL
- MIC (Candida parapsilosis): > 50 µg/mL

SMILES: Clc1cccc(/N=C(\NCCCNc2ccnc3cc(Cl)ccc23)Nc2ccccc2Oc2cc(Cl)ccc2Cl)c1
- MIC (Staphylococcus aureus): 1.56 µg/mL (≈ 2.49 µM)
- MIC [1]: 50 µg/mL (≈ 80 µM)
- MIC (Candida albicans): 25 µg/mL (≈ 40 µM)
- MIC (Aspergillus fumigatus): > 50 µg/mL
- IC50 (Plasmodium falciparum [2]): 77.7 nM
- selectivity ratio [3]: 18.7
- MIC (Escherichia coli): 6.25 µg/mL (≈ 9.99 µM)
- IC50 (Plasmodium falciparum [4]): 87.7 nM
- MIC (Klebsiella pneumoniae): > 50 µg/mL
- MIC (Pseudomonas aeruginosa): > 50 µg/mL
- MIC (Cryptococcus neoformans): 50 µg/mL (≈ 80 µM)
- MIC (Sporothrix schenckii): 50 µg/mL (≈ 80 µM)
- MIC (Candida parapsilosis): 50 µg/mL (≈ 80 µM)

- MIC (Staphylococcus aureus): 3.12 µg/mL (≈ 5.32 µM)
- MIC [1]: 6.25 µg/mL (≈ 10.7 µM)
- MIC (Candida albicans): 6.25 µg/mL (≈ 10.7 µM)
- MIC (Aspergillus fumigatus): > 50 µg/mL
- MIC (Escherichia coli): 3.12 µg/mL (≈ 5.32 µM)
- IC50 (Plasmodium falciparum [4]): 369 nM
- MIC (Klebsiella pneumoniae): 25 µg/mL (≈ 42.6 µM)
- MIC (Pseudomonas aeruginosa): > 50 µg/mL
- MIC (Cryptococcus neoformans): 50 µg/mL (≈ 85.2 µM)
- MIC (Sporothrix schenckii): 6.25 µg/mL (≈ 10.7 µM)
- MIC (Candida parapsilosis): 50 µg/mL (≈ 85.2 µM)
SMILES: COc1ccc(Oc2ccccc2N/C(=N/c2cccc(Cl)c2)NCCCNc2ccnc3cc(Cl)ccc23)cc1
- selectivity ratio [3]: 10.4

SMILES: Clc1ccc(/N=C(\NCCCCNc2ccnc3cc(Cl)ccc23)Nc2ccc(Oc3cc(Cl)ccc3Cl)cc2)cc1
- MIC (Staphylococcus aureus): 6.25 µg/mL (≈ 9.77 µM)
- MIC [1]: 12.5 µg/mL (≈ 19.5 µM)
- MIC (Candida albicans): 12.5 µg/mL (≈ 19.5 µM)
- MIC (Aspergillus fumigatus): 25 µg/mL (≈ 39.1 µM)
- IC50 (Plasmodium falciparum [2]): 209 nM
- selectivity ratio [3]: 756
- MIC (Escherichia coli): 6.25 µg/mL (≈ 9.77 µM)
- IC50 (Plasmodium falciparum [4]): 29 nM
- MIC (Klebsiella pneumoniae): 12.5 µg/mL (≈ 19.5 µM)
- MIC (Pseudomonas aeruginosa): > 50 µg/mL
- MIC (Cryptococcus neoformans): 12.5 µg/mL (≈ 19.5 µM)
- MIC (Sporothrix schenckii): 6.25 µg/mL (≈ 9.77 µM)
- MIC (Candida parapsilosis): 12.5 µg/mL (≈ 19.5 µM)

SMILES: COC(=O)/C(C)=C/c1ccc(Oc2ccccc2N/C(=N/c2ccccc2)NCCCNc2ccnc3cc(Cl)ccc23)cc1
- MIC (Staphylococcus aureus): > 50 µg/mL
- MIC [1]: > 50 µg/mL
- MIC (Candida albicans): > 50 µg/mL
- MIC (Aspergillus fumigatus): > 50 µg/mL
- IC50 (Plasmodium falciparum [2]): 161 nM
- selectivity ratio [3]: 37.2
- MIC (Escherichia coli): > 50 µg/mL
- IC50 (Plasmodium falciparum [4]): 174 nM
- MIC (Klebsiella pneumoniae): > 50 µg/mL
- MIC (Pseudomonas aeruginosa): > 50 µg/mL
- MIC (Cryptococcus neoformans): > 50 µg/mL
- MIC (Sporothrix schenckii): > 50 µg/mL
- MIC (Candida parapsilosis): > 50 µg/mL

SMILES: COC(=O)/C(C)=C/c1ccc(Oc2ccccc2N/C(=N/c2cccc(Cl)c2)NC2CC2)cc1
- MIC (Staphylococcus aureus): 25 µg/mL (≈ 52.5 µM)
- MIC [1]: 25 µg/mL (≈ 52.5 µM)
- MIC (Candida albicans): 50 µg/mL (≈ 105 µM)
- MIC (Aspergillus fumigatus): > 50 µg/mL
- IC50 (Plasmodium falciparum [2]): > 1200 nM
- MIC (Escherichia coli): > 50 µg/mL
- IC50 (Plasmodium falciparum [4]): > 1200 nM
- MIC (Klebsiella pneumoniae): 12.5 µg/mL (≈ 26.3 µM)
- MIC (Pseudomonas aeruginosa): > 50 µg/mL
- MIC (Cryptococcus neoformans): > 50 µg/mL
- MIC (Sporothrix schenckii): > 50 µg/mL
- MIC (Candida parapsilosis): > 50 µg/mL

SMILES: COC(=O)/C(C)=C/c1ccc(Oc2ccccc2N/C(=N/c2ccccc2)NCCNc2ccnc3cc(Cl)ccc23)cc1
- MIC (Staphylococcus aureus): > 50 µg/mL
- MIC [1]: > 50 µg/mL
- MIC (Candida albicans): > 50 µg/mL
- MIC (Aspergillus fumigatus): > 50 µg/mL
- IC50 (Plasmodium falciparum [2]): 168 nM
- MIC (Escherichia coli): > 50 µg/mL
- IC50 (Plasmodium falciparum [4]): > 800 nM
- MIC (Klebsiella pneumoniae): > 50 µg/mL
- MIC (Pseudomonas aeruginosa): > 50 µg/mL
- MIC (Cryptococcus neoformans): > 50 µg/mL
- MIC (Sporothrix schenckii): > 50 µg/mL
- MIC (Candida parapsilosis): > 50 µg/mL

SMILES: CN[C@H](CC(C)C)C(=O)N[C@H]1C(=O)N[C@@H](CC(N)=O)C(=O)N[C@H]2C(=O)N[C@H]3C(=O)N[C@H](C(=O)N[C@H](C(=O)O)c4cc(O)cc(O)c4-c4cc3ccc4O)[C@H](O)c3ccc(c(Cl)c3)Oc3cc2cc(c3O[C@@H]2O[C@H](CO)[C@@H](O)[C@H](O)[C@H]2O[C@H]2C[C@](C)(N)[C@H](O)[C@H](C)O2)Oc2ccc(cc2Cl)[C@H]1O [VANCOMYCIN]
- MIC (Staphylococcus aureus): 0.78 µg/mL (≈ 0.538 µM)
- MIC (Escherichia coli): > 50 µg/mL
- MIC (Klebsiella pneumoniae): > 50 µg/mL
- MIC (Pseudomonas aeruginosa): > 50 µg/mL

- MIC (Staphylococcus aureus): 1.56 µg/mL (≈ 4.1 µM)
- MIC (Escherichia coli): > 50 µg/mL
- MIC (Klebsiella pneumoniae): > 50 µg/mL
- MIC (Pseudomonas aeruginosa): > 50 µg/mL
SMILES: COc1cccc(OC)c1C(=O)N[C@@H]1C(=O)N2[C@@H]1SC(C)(C)[C@@H]2C(=O)O [METHICILLIN]

SMILES: COC(=O)/C(C)=C/c1ccc(Oc2ccccc2N/C(=N/c2ccccc2)NC2CC2)cc1
- MIC (Staphylococcus aureus): > 50 µg/mL
- MIC [1]: > 50 µg/mL
- MIC (Candida albicans): > 50 µg/mL
- MIC (Aspergillus fumigatus): > 50 µg/mL
- IC50 (Plasmodium falciparum [2]): > 1200 nM
- MIC (Escherichia coli): > 50 µg/mL
- IC50 (Plasmodium falciparum [4]): > 1200 nM
- MIC (Klebsiella pneumoniae): 12.5 µg/mL (≈ 28.3 µM)
- MIC (Pseudomonas aeruginosa): > 50 µg/mL
- MIC (Cryptococcus neoformans): > 50 µg/mL
- MIC (Sporothrix schenckii): > 50 µg/mL
- MIC (Candida parapsilosis): > 50 µg/mL

SMILES: C[C@@H]1[C@H](O)[C@@H](C)/C=C/C=C/C=C/C=C/C=C/C=C/C=C/[C@H](O[C@@H]2O[C@H](C)[C@@H](O)[C@H](N)[C@@H]2O)C[C@@H]2O[C@](O)(C[C@@H](O)C[C@@H](O)[C@H](O)CC[C@@H](O)C[C@@H](O)CC(=O)O[C@H]1C)C[C@H](O)[C@H]2C(=O)O [AMPHOTERICIN B]
- MIC [1]: 0.12 µg/mL (≈ 0.13 µM)
- MIC (Candida albicans): 0.12 µg/mL (≈ 0.13 µM)
- MIC (Aspergillus fumigatus): 0.5 µg/mL (≈ 0.541 µM)
- MIC (Cryptococcus neoformans): 0.06 µg/mL (≈ 0.0649 µM)
- MIC (Sporothrix schenckii): 0.12 µg/mL (≈ 0.13 µM)
- MIC (Candida parapsilosis): 0.12 µg/mL (≈ 0.13 µM)
